In this test the target is T1, MtEG5A (Thermothelomyces thermophilus, UniProt G2Q5D8).
T1 construct: gene MYCTH_86753; mature GH5 with CBM1; ORF 389 aa, signal peptide removed (printed MKSSILASVFATGAVA); C-terminal myc/His tag; Pichia pastoris X33
T1 sequence (G2Q5D8 17-389): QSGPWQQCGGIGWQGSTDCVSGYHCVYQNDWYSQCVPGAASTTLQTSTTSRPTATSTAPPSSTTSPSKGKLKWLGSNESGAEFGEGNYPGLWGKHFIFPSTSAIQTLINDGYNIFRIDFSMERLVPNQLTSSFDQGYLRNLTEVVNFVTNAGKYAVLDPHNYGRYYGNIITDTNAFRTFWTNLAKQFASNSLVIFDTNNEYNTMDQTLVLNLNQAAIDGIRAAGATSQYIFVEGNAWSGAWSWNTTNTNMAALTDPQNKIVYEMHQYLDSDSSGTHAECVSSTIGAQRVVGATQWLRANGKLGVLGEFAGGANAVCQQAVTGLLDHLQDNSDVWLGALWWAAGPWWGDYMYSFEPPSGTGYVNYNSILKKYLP
Nature of the test: HPAEC-PAD hydrolysis time course. The settings on record: 40 uM substrate; citrate-phosphate pH 5.0; 50 °C. Type of test: biochemical.

This is an account of results in article PMC5432998, “Recombinant expression of thermostable processive MtEG5 endoglucanase and its synergism with MtLPMO from Myceliophthora thermophila during the hydrolysis of lignocellulosic substrates” (Biotechnology for Biofuels, 2017).

Consider `OC[C@H]1O[C@@H](O[C@H]2[C@H](O)[C@@H](O)[C@H](O[C@H]3[C@H](O)[C@@H](O)[C@H](O[C@H]4[C@H](O)[C@@H](O)[C@H](O[C@H]5[C@H](O)[C@@H](O)[C@H](O[C@H]6[C@H](O)[C@@H](O)C(O)O[C@@H]6CO)O[C@@H]5CO)O[C@@H]4CO)O[C@@H]3CO)O[C@@H]2CO)[C@H](O)[C@@H](O)[C@@H]1O` (some centres unmarked) [G6, cellohexaose], for which the “HPAEC-PAD hydrolysis time course” value is “The comparison of catalytic efficiency (k cat /K m) values of MtEG5A against the oligosaccharides”. Next, `OC[C@H]1O[C@@H](O[C@H]2[C@H](O)[C@@H](O)[C@H](O[C@H]3[C@H](O)[C@@H](O)[C@H](O[C@H]4[C@H](O)[C@@H](O)[C@H](O[C@H]5[C@H](O)[C@@H](O)C(O)O[C@@H]5CO)O[C@@H]4CO)O[C@@H]3CO)O[C@@H]2CO)[C@H](O)[C@@H](O)[C@@H]1O` (some centres unmarked) [G5, cellopentaose]: “the enzyme catalyzed the hydrolysis of G5, the products were G2 and G3”.
